“Also recorded” adds a separate entry of the source. Peptide text beside a SMILES is read from it. * marks the point of attachment. Cbz = O=C(OCc1ccccc1)*; OtBu = CC(C)(C)O*
B1: ovalbumin (protein, UniProt P01012 2-386, looked up)
Ovalbumin: GSIGAASMEFCFDVFKELKVHHANENIFYCPIAIMSALAMVYLGAKDSTRTQINKVVRFDKLPGFGDSIEAQCGTSVNVHSSLRDILNQITKPNDVYSFSLASRLYAEERYPILPEYLQCVKELYRGGLEPINFQTAADQARELINSWVESQTNGIIRNVLQPSSVDSQTAMVLVNAIVFKGLWEKAFKDEDTQAMPFRVTEQESKPVQMMYQIGLFRVASMASEKMKILELPFASGTMSMLVLLPDEVSGLEQLESIINFEKLTEWTSSNVMEERKIKVYLPRMKMEEKYNLTSVLMAMGITDVFSSSANLSGISSAESLKISQAVHAAHAEINEAGREVVGSAEAGVDAASVSEEFRADHPFLFCIKHIATNAVLFFGRCVSP
notes: internal positive control antigen; exogenous foreign neoantigen

What was measured:
BMDC = assay: Maturation of LPS-stimulated BMDC (costimulatory molecules, cytokines); assay type: cell-based, mouse; conditions: PSI-pulsed BMDC stimulated with LPS
[1] = test system: DO11.10.RAG2−/− CD4^+ T cells; assay: T cell proliferation assay with PSI-pretreated, OVA peptide-pulsed BMDC; assay type: cell-based, mouse; conditions: BMDC pretreated with 1 μM PSI 4 hrs, then OVA peptide 20 hrs; p<0.005
Method: Generation of PSI-APC Treg cells—BMDC generated from BALB/c mice were treated with 1 μM PSI dissolved in DMSO for 4 hrs and then 5 μg/ml OVA peptide for additional 20 hrs at 1×10^6/ml. After washing twice, the pretreated BMDC were added at 1×10^5/ml into cultures of 1×10^6 freshly isolated CD4^+ T cells from DO11.10.RAG2^−/− mice. Seven days later, the CD4^+ T cells were re-isolated with CD4-magnet beads (Pharmingen, San Diego, Calif.) and used to test for regulatory activity (PSI-APC Treg). Freshly isolated CD4^+ T cells from DO11.10.RAG2^−/− mice were also cultured with 5 μg/ml OVA peptide-pulsed BMDC as control, and used as memory T cells (Them).
After 4 d of incubation, 0.5 μCi of ^3H-thymidine was added to each culture for the last 18 hr of the incubation period. The cells were harvested on glass fiber filters on a PHD cell harvested (Cambridge Technology, Watertown, Mass.) and proliferation was assessed as the amount of incorporation of ^3H-thymidine into cell DNA, as measured by beta scintillation counting of the harvested samples. Data are expressed as CPM±SD.

DO11.10 CD4^+ T cells = assay: T cell cytokine assays (ELISA of culture supernatants); assay type: cell-based, mouse; conditions: PSI-pretreated, OVA peptide-pulsed BMDC
Method: […] The culture supernatants (SN) were collected at different times and pooled together for assay. SN collected after 24 hr of culture were used for IL-2 assay and SN collected at 72 h of culture were used for IL-10, IL-4, and IFNγ assays. The cytokine content in SN was determined by ELISA as previously described by Cong et al. (Cong et al., CD4+ T cells reactive to enteric bacterial antigens in spontaneously colitic C3H/HeJBir mice: increased T helper cell type 1 response and ability to transfer disease. Journal of Experimental Medicine 187:855 (1998).

NF-κB p65 = assay: Measurement of nuclear NF-κB p65 in BMDC; assay type: cell-based, mouse; conditions: 1 μg/ml LPS plus 1 μM PSI for 60 min, compared to control
Method: Measurement of nuclear NF-κB—BMDC were treated with media alone, 1 μg/ml LPS, or LPS plus 1 μM PSI for 60 min. The nuclear extracts were made by using TransFactor Extraction Kit (Clontech Laboratories, Inc., Palo Alto, Calif.) based on the protocol recommended by the manufacturer. NF-κB p65 was measured by using Mercury TransFactor Kits (Clontech Labs, Inc., Palo Alto, Calif.) according to manufacturer's protocol.

mice = conditions: mouse, in vivo
Splenic CD4^+ T cells = assay: Antigen-specific proliferation of splenic CD4+ T cells (3H-thymidine); assay type: cell-based, mouse

Row | Molecule | IL-10 production by BMDC (BMDC) | IL-12p70 cytokine production (BMDC) | expression of costimulatory molecules CD40, CD86 and MHC class II (BMDC) | naïve CD4+ T cell proliferation to OVA peptide-pulsed BMDC [1] | T cell IL-4 production (DO11.10 CD4^+ T cells) | reduction of T cell IFNα production (DO11.10 CD4^+ T cells) [%] | reduction of T cell IL-2 production (DO11.10 CD4^+ T cells) [%] | reduction of T cell IL-10 production (DO11.10 CD4^+ T cells) [%] | NF-κB p65 in nuclear extracts (NF-κB p65) | intestinal IgA response to OVA (mice) | serum IgG response to OVA (mice) | median stimulation index (Splenic CD4^+ T cells; post immunization (day 35), 50 μg/ml antigen) | T cell proliferative response, stimulation index (SI) (Splenic CD4^+ T cells; unimmunized mice)
1 | CC[C@H](C)[C@H](NC(=O)OCc1ccccc1)C(=O)N[C@@H](CCC(=O)OC(C)(C)C)C(=O)N[C@@H](C)C(=O)N[C@H](C=O)CC(C)C [PSI, benzyloxycarbonyl-isoleucyl-glutamyl(O-tert-butyl)-alanyl-leucinal] (Cbz-IE(OtBu)AL-aldehyde) | not affected | did not upregulate | did not upregulate | inhibited T cell proliferation and cytokine production; also recorded: greatly decreased | no IL-4 production | 81 | 89 | 79 | inhibited BMDC NF-κβ activation; also recorded: reduced levels of NF-κB p65 |  |  |  | 
2 | cholera toxin [CT] |  |  |  |  |  |  |  |  |  | strong intestinal IgA response | strong serum IgG response to OVA |  | 
3 | B1 |  |  |  |  |  |  |  |  |  | virtually no intestinal IgA to OVA | no serum IgG response to OVA | 17.1 | < 3

Reference: patent US7868139B2, “Compositions and methods for the identification and treatment of immune-mediated inflammatory diseases” (UAB Research Foundation, priority 2006, dated 2011)
